Data set [1] in a line: Residual water content by Karl Fischer titration. Type of data set: physicochemical. The note with it: Karl Fisher Titration, n = 3, Mean ± SD. From the text: (§1) Using conditions similar to previously reported (Li, X., et al., J Aerosol Med Pulm Drug Deliv, 2014. 27(2): p. 81-93; Li, X., et al., European Journal of Pharmaceutical Sciences, 2014. 52: p. 191-205; Meenach, S. A., et al., AAPS PharmSciTech, 2014. 15(6): p. 1574-87; Li, X., et al., Pharm Sci, 2014. 103(9): p. 2937-49; Meenach, S. A., et al., European Journal of Pharmaceutical Sciences, 2013. 49(4): p. 699-797; Muralidharan, P., et al., The Royal Society of Chemistry(RSC): Molecular Systems Design & Engineering, 2016: p. 1-18), the residual water content of all SD and Co-SD powders were quantified analytically by Karl Fischer titration (KFT) coulometrically using a TitroLine 7500 trace titrator (SI Analytics, Germany).
Approximately 2-10 mg of powder was added to the titration cell containing Hydranal® Coulomat AD reagent. The residual water content was then calculated.

The subject of data set [2] is MCT rats. Kind of data set: PH development in MCT rats. The format is in vivo.
The nature of data set [3]: Particle sizing and size distribution by image analysis of SEM micrographs. Type of data set: physicochemical.
Text: as §1, with “visual imaging and analysis” for “the residual water content”, “particle size, morphology,” for “all SD”, “surface morphology” for “Co-SD powders”, “achieved” for “quantified analytically”, “scanning electron microscopy (SEM)” for “Karl Fischer titration (KFT) coulometrically”, “FEI Inspect S microscope (FBI, Brno, Czech republic). […]” for “TitroLine 7500 trace titrator (SI Analytics, Germany).”
The mean size, standard deviation, and size range were determined using SigmaScan™ Pro 5.0.0 (Systat, Inc., San Jose, Calif.) based on their scanning electron micrographs using a similar procedure that we have previously reported (Muralidharan et al., supra; Meenach, S. A., et al., AAPS PharmSciTech, 2014. 15(6): p. 1574-87). Representative micrographs for each particle sample at 3000× magnification was analyzed by measuring the diameter of at least 100 particles per sample.

`C[N+](C)(C)C[C@H](O)CC(=O)[O-]` [Raw L-Car, L-Carnitine]: the Water content in data set [1] is given as 2.68 ± 0.8 % (w/w). Moreover, the PH development entry in data set [2] is reported as “attenuates PH development”. Besides, the “Particle size, Range” value in data set [3] (n = 100) is 298.38-1810.57 μm. In addition, the “Particle size, Mean” value in data set [3] (n = 100, Mean ± SD) worked out at 659.05 ± 235.82 μm.
For `OC[C@@H](O)[C@@H](O)[C@H](O)[C@H](O)CO` [Raw Man, D-mannitol], the Water content in data set [1] is reported as 0.3 ± 0.13 % (w/w).

The values above are taken from patent US11904054B2, “Compositions and methods for delivering pharmaceutical agents” (Arizona Board of Regents on Behalf of the University of …, priority 2018, dated 2024).
